Test results: PMC4535380, “Overproduction of pro-transglutaminase from Streptomyces hygroscopicus in Yarrowia lipolytica and its biochemical characterization” (BMC Biotechnology, 2015)
Read-outs that look alike come from different tables or passages of the source. Peptide text beside a SMILES is read from it. * marks the point of attachment. Cbz = O=C(OCc1ccccc1)*

What was measured:
Format in all cases: biochemical, Streptomyces hygroscopicus
activated pro-TGase [1] = system: T1, activated pro-TGase; assay: colorimetric hydroxamate assay at […] nm, Lineweaver-Burk; conditions: hydroxylamine co-substrate (assay b48), 50 mmol/L Tris-HCl pH 6.0; substrate 6-30 mmol/L (below Km); dispase-activated; read-out: N160Q/N355Q
T1 construct: pro-TGase behind XPR2 pre signal, secreted by Yarrowia lipolytica Po1h (pINA1297), N-glycosylated; no tag mentioned

activated pro-TGase [2] = system: T1, activated pro-TGase; assay: as above; conditions: hydroxylamine co-substrate (assay b48), 50 mmol/L Tris-HCl pH 6.0; substrate 6-30 mmol/L (below Km); dispase-activated; read-out: N160Q
activated pro-TGase [3] = system: T1, activated pro-TGase; assay: as above; conditions: hydroxylamine co-substrate (assay b48), 50 mmol/L Tris-HCl pH 6.0; substrate 6-30 mmol/L (below Km); dispase-activated; read-out: N355Q
[4] = system: T2, NC(=O)CC[C@H](NC(=O)OCc1ccccc1)C(=O)NCC(=O)O; assay: purified protein; conditions: hydroxylamine co-substrate (assay b48), 50 mmol/L Tris-HCl pH 6.0, substrate 6-30 mmol/L (below Km), dispase-activated, 37.0 °C
T2 construct: pro-TGase behind XPR2 pre signal, secreted by Yarrowia lipolytica Po1h (pINA1297), N-glycosylated; no tag mentioned

| Compound | Km (activated pro-TGase [1]) [mM] | Km (activated pro-TGase [2]) [mM] | Km (activated pro-TGase [3]) [mM] | Km [4] [mM] | kcat [4] [s⁻¹] |
| --- | --- | --- | --- | --- | --- |
| NC(=O)CC[C@H](NC(=O)OCc1ccccc1)C(=O)NCC(=O)O [N-CBZ-Gln-Gly] (Cbz-Gln-Gly-OH) | 48.4 ± 2.4 | 47 ± 1.5 | 54.7 ± 2.1 |  |  |
| activated pro-TGase (wild type) (Streptomyces hygroscopicus) |  |  |  | 59.5 ± 2.3 | 31.5 ± 1.7 |
